We go through 2 molecules from patent publication US9494524B2, “Assay for analytes based on aggregation” (priority 2010, dated 2016).

Where two headings read alike, the source gives them in different places.

Assay [1] relates to Phospholipase A2 from Naja mossambica mossambica. It counts as biochemical. As to conditions: in the presence of PLA2 and EDTA, room temperature (FIG. 3A). How it is done: (§1) Methodology: Mixed solutions of 20 nm JR2EC-functionalised gold nanoparticles and 100 nm JR2KC2-loaded liposomes were prepared in accordance with Example 1. Absorption spectra were measured for the solutions under various solution conditions, as discussed below.
(§2) Methodology: JR2KC2 loaded liposomes, carboxyfluorescein (CF)-loaded liposomes and JR2EC-functionalised gold nanoparticles were prepared as described in Example 1. A mixture of PLA2 and chlorpromazine was added to the suspensions of liposomes. The assay response was recorded spectroscopically (in the UV-visible range) after incubating various concentrations of chlorpromazine with PLA2 (7 nM), functionalized gold nanoparticles (0.1 nM) and liposomes (1.4 nM) for 10 minutes at 37° C. For JR2KC2-loaded liposomes, the assay response was measured spectroscopically (in the UV-visible range) by recording spectra in the range 400-800 nm with 2 minute intervals using a Perkin Elmer Lambda 25 Spectrophotometer, and then extracting Δλmax.
(§3) This value was obtained by fitting the data to the monophasic Hill equation: […]

The test system of assay [2] is T1, Phospholipase A2 from Naja mossambica mossambica.
T1 construct: IC50; other: CF-loaded liposomes, PLA2 7 nM, 37° C; other: PLA2 7 nM, gold nanoparticles 0.1 nM, liposomes 1.4 nM, 10 minutes at 37° C., Hill fit of Δλmax; lag time
It counts as biochemical. As to the method:
as §1, §2, §3

A further assay concerns PLA2. As to conditions: literature values; read-out: IC50 previously reported; cited from earlier work.
Assay [3] has as its target T1, Phospholipase A2 from Naja mossambica mossambica. The assay can be described thus: traditional carboxyfluorescein (CF)-based fluorescence assay with CF-loaded liposomes. It counts as biochemical. The following applies: PLA2 7 nM, 37° C. How it is done:
Carboxyfluorescein-loaded liposomes were prepared similarly, except that the rehydration solution was 50 mM CF, 20 mM phosphate, adjusted to pH 7 with NaOH. The untrapped dye was removed by filtration on a Sephadex G-25 column with PBS as eluent. The total lipid concentration in all samples was determined using the Stewart assay.^21
Methodology: Liposomes containing 50 mM of carboxyfluorescein were prepared as described in Example 1. The final lipid concentration in the sample was 30 μg/ml. The liposomes were incubated with solutions of PLA2 at a variety of concentrations for 30 minutes. Experiments were performed on a Perkin Elmer fluorimeter with an excitation wavelength of 490 nm and an emission wavelength of 520 nm. […]
as §2, with “A mixture of PLA2 and chlorpromazine was added to the suspensions of liposomes.” left out

As to `O=C(O)CN(CCN(CC(=O)O)CC(=O)O)CC(=O)O` [EDTA, ethylenediaminetetraacetic acid], in assay [1], the “effect on PLA2-induced nanoparticle aggregation” value was “prevented aggregation”.

Broadly, the IC50 is the concentration that gives 50% inhibition. Regarding `CN(C)CCCN1c2ccccc2Sc2ccc(Cl)cc21` [chlorpromazine], the lag time result in assay [2] (10 μM inhibitor, 7 nM PLA2, about 5 minutes without the inhibitor) is “approximately 15 minutes”. Further, the “concentration of active non-inhibited PLA2 relative to actual PLA2 concentration” value in assay [2] (10 μM inhibitor, read from lag time (FIG. 12b)) is “about half”. Moreover, the IC50 in assay [2] (PLA2 7 nM, gold nanoparticles 0.1 nM, liposomes 1.4 nM, 10 minutes at 37° C., Hill fit of Δλmax) is 6.5 µM; with PLA2 it was 10 to 100 µM; in assay [3], 10 µM.
